pIC50: −log10 of the molar value. Each block holds one molecule with its values, some of them ahead of it.
Assays:
[1] = target: T1, BACE1 (Homo sapiens, UniProt P56817); assay: In Vitro Enzymatic BACE FRET (Fluorescence Resonance Energy Transfer) Assay; type: biochemical; conditions: read-out: BACE1 FRET assay; for IC50: Table III, IC50's in uM ranges
Summary of the method: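 Cleavage of a 50 nM internally quenched peptide substrate is followed by fluorescence after a one-hour reaction in acidic acetate buffer, pH 4.2, terminated by Tris.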

[2] = target: T1, BACE1; assay: In Vitro BACE Cell-based Assay (HEK cell assay): Aβ40 in conditioned medium of cells stably expressing Amyloid Precursor Protein, sandwich ELISA; conditions: read-out: HEK cell assay; for IC50: Table III, IC50's in uM ranges
Summary of the method: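 HEK cells stably expressing APP were treated 24 h with compound in 10-point dose response starting at 100 or 10 μM (0.1% DMSO). Secreted Aβ40 quantified by sandwich ELISA (pAb40 capture, biotinylated 6E10 detection, europium time-resolved fluorescence), with IC50 derived from percent inhibition versus concentration.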

[3] = Table II, Aβ40, 24 h incubation

T1 sequence (P56817 46-501, species assumed): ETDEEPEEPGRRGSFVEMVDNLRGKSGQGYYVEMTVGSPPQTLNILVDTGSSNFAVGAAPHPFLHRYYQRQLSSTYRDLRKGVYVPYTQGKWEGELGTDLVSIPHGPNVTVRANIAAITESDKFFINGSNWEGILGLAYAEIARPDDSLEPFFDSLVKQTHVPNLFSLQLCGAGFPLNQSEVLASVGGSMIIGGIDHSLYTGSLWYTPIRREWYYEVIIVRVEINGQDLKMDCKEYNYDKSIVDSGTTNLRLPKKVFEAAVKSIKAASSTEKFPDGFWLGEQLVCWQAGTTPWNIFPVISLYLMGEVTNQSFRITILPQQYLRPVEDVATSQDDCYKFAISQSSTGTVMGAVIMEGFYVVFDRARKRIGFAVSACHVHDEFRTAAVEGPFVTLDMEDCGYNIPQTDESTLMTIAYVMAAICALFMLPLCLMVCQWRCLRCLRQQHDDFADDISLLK

Structure (SMILES): N#Cc1ccccc1Oc1ccc2c(c1)[C@]1(COC(N)=N1)c1cc(-c3cncnc3)ccc1O2 [compound 965]
pIC50 [1]: 6.00 to 7.00
pIC50 [2]: < 5.30

Structure (SMILES): NC1=N[C@@]2(CO1)c1cc(-c3cccnc3N3CCOCC3)ccc1Oc1ccc(N3CCOCC3)cc12 [compound 391]
pIC50 ([1]; in vitro BACE FRET enzyme assay, IC50 class symbols): 6.00 to 7.00
pIC50 ([2]; HEK cell-based assay, Aβ40 in conditioned medium, IC50 class symbols): 5.30 to 6.00

Structure (SMILES): Cc1noc(C)c1-c1ccc2c(c1)[C@@]1(COC(N)=N1)c1cc(OCC(C)(C)C)ccc1O2 [compound 976]
pIC50 [1]: 6.00 to 7.00
pIC50 [2]: < 5.30

Structure (SMILES): NC1=N[C@@]2(CO1)c1cc(-c3cncnc3)ccc1Oc1c(F)cc(OCC3CC3(F)F)cc12 (some centres unmarked) [compound 507]
pIC50 [1]: > 7.00
pIC50 ([2]; HEK cells): > 7.00

Structure (SMILES): CCCOc1ccc2c(c1)C1(COC(N)=N1)c1cc(-c3cncnc3)ccc1O2 (centres unmarked) [Example 9, 2′-propoxy-7′-(5-pyrimidinyl)spiro[1,3-oxazole-4,9′-xanthen]-2-amine]
pIC50 ([1]; Table 1): > 7.00
pIC50 ([2]; Table 1, Aβ40, 24 h incubation): 6.00 to 7.00

Structure (SMILES): NC1=NC2(CO1)c1cc(-c3cccnc3)ccc1Oc1ccc(-c3cccnc3)cc12 [Example 123, 2′,7′-di(pyridin-3-yl)-5H-spiro[oxazole-4,9′-xanthen]-2-amine]
IC50 [1]: < 0.1 µM
IC50 [2]: < 0.1 µM

Structure (SMILES): Cc1nn(C)c(C)c1-c1ccc2c(c1)[C@@]1(COC(N)=N1)c1cc(OCC(C)(C)C)ccc1O2 [compound 213]
IC50 [1]: 0.1 to 1 µM
IC50 [2]: 1 to 5 µM

Structure (SMILES): CC(C)(C)COc1ccc2c(c1)[C@@]1(COC(N)=N1)c1cc(-c3ccnc(F)c3)cnc1O2 [compound 752]
pIC50 [1]: > 7.00
pIC50 [2]: > 7.00

Structure (SMILES): CC(C)(C)COc1ccc2c(c1)[C@]1(COC(N)=N1)c1cc(-c3ccc4[nH]ccc4c3)ccc1O2 [Example 73, (4S)-2′-(2,2-dimethylpropoxy)-7′-(1H-indol-5-yl)spiro[1,3-oxazole-4,9′-xanthen]-2-amine]
pIC50 ([1]; Table II): 6.00 to 7.00
pIC50 [2, 3]: 5.30 to 6.00

Structure (SMILES): CC1(COc2ccc3c(c2)[C@]2(COC(N)=N2)c2cc(-c4cccnc4)cnc2O3)COC1 [compound 165]
IC50 [1]: < 0.1 µM
IC50 [2]: < 0.1 µM

Structure (SMILES): CC(C)(C)COc1ccc2c(c1)[C@]1(COC(N)=N1)c1cc(-c3cncnc3O)ccc1O2 [compound 884]
pIC50 ([1]; Table IV, class symbols): 6.00 to 7.00
pIC50 ([2]; Table IV, class symbols): 5.30 to 6.00

Structure (SMILES): CC(C)(C)OC(=O)n1c(-c2ccc3c(c2)[C@@]2(COC(N)=N2)c2ccccc2O3)cc2ccccc21 [compound 568]
pIC50 ([1]; Table IV, class symbols): < 5.30
pIC50 ([2]; Table IV, class symbols): < 5.30

Structure (SMILES): CC1(C)CC(c2cc3c(cn2)Oc2ccc(-c4cccnc4)cc2[C@@]32COC(N)=N2)=CCO1 [compound 436]
pIC50 [1]: > 7.00
pIC50 ([2]; HEK cells): > 7.00

The next lines start with the values.

pIC50 ([1]; Table IV, class symbols): > 7.00
pIC50 ([2]; Table IV, class symbols): 6.00 to 7.00
Structure (SMILES): CC(C)(C)COc1ccc2c(c1)[C@]1(COC(N)=N1)c1cc(-c3cccnc3F)cnc1O2 [compound 871]

pIC50 ([1]; Table II): > 7.00
pIC50 [2, 3]: 6.00 to 7.00
Structure (SMILES): CCCc1ccc2c(c1)[C@@]1(COC(N)=N1)c1cc(-c3cncnc3)ccc1O2 [Example 53, (4S)-2′-propyl-7′-(5-pyrimidinyl)spiro[1,3-oxazole-4,9′-xanthen]-2-amine]

pIC50 ([1]; Table IV, class symbols): 5.30 to 6.00
pIC50 ([2]; Table IV, class symbols): 5.30 to 6.00
Structure (SMILES): COc1ccc2c(c1)[C@]1(COC(N)=N1)c1cc(-c3ccnc4ccccc34)ccc1O2 [compound 589]

pIC50 ([1]; Table II): 6.00 to 7.00
pIC50 [2, 3]: 6.00 to 7.00
Structure (SMILES): CC(C)(C)COc1ccc2c(c1)[C@]1(COC(N)=N1)c1cc(N3CCOCC3)ccc1O2 [Example 43, (4S)-2′-(2,2-dimethylpropoxy)-7′-(4-morpholinyl)spiro[1,3-oxazole-4,9′-xanthen]-2-amine]

pIC50 [1]: > 7.00
pIC50 ([2]; HEK cells): > 7.00
Structure (SMILES): CC(C)(F)COc1cc2c(cc1F)Oc1ccc(-c3cncnc3)cc1[C@@]21COC(N)=N1 [compound 530]

IC50 [1]: < 0.1 µM
IC50 [2]: < 0.1 µM
Structure (SMILES): CC(C)(F)COc1ccc2c(c1)[C@]1(COC(N)=N1)c1cc(-c3cccnc3)cnc1O2 [compound 177]

pIC50 ([1]; Table IV, class symbols): > 7.00
pIC50 ([2]; Table IV, class symbols): 6.00 to 7.00
Structure (SMILES): NC1=N[C@@]2(CO1)c1cc(-c3cncnc3)ccc1Oc1ccc(-c3cccc(C(F)(F)F)c3)cc12 [compound 809]

pIC50 [1]: > 7.00
pIC50 ([2]; HEK cells): > 7.00
Structure (SMILES): CC1(COc2cnc3c(c2)[C@]2(COC(N)=N2)c2cc(-c4ccccc4)ccc2O3)COC1 [compound 459]

pIC50 ([1]; Table IV, class symbols): > 7.00
pIC50 ([2]; Table IV, class symbols): > 7.00
Structure (SMILES): NC1=N[C@]2(CO1)c1cc(C3=CCSCC3)ccc1Oc1ccc(-c3cncnc3)cc12 [compound 831]

— patent US8426447B2, “Spiro-tricyclic ring compounds as beta-secretase modulators and methods of use” (Amgen Inc., priority 2008, dated 2013)
